In patent US20240287124A1, “PRODRUGS OF 4'-SUBSTITUTED NUCLEOSIDE REVERSE TRANSCRIPTASE INHIBITORS” (Merck Sharp & Dohme LLC, priority 2023, published 2024) one finds solubility and IC50 data, which are given here for ten molecules.

Series [1] is described as follows: Aqueous solubility in PBS, pH 7.4. The format is physicochemical. To be noted: phosphate buffered saline, pH 7.4, aqueous buffer, thermodynamic from solid, pH 7.4 phosphate buffered saline, 24 hours, amorphous or crystalline material; read-out: Aqu. Solubility. On the procedure:
Aqueous solubility of the compounds was determined by suspending excess solid (typically 0.3-0.5 mg) in PBS, pH 7.4, at a concentration of 0.5 mg/mL. The suspension was vortexed for 10-30 seconds to wet the material and stirred at 600 rpm for 24 hours. For analysis by UPLC, 150 μL aliquot sample was transferred into a […] PVDF spin filter and centrifuged at 14,000 rpm for 5 minutes. 100 μL of the filtrate was diluted with 100 μL 1:1 Acetonitrile (ACN):H2O. The resultant samples were analyzed using UPLC and quantified against a standard curve of the compound of interest dissolved in 1:1 ACN:H2O. The retains of the solids were checked by XRPD and PLM to determine if the phase of the material was crystalline or amorphous.

Series [2] deals with HIV-1 wild-type (R8) virus. As to the kind of experiment: Viral KINetics in Green cells (VIKING) assay, HIV-1 replication in MT4-GFP reporter cells. The format is cell-based. Conditions: Human immunodeficiency virus 1, 10% normal human serum, MT4-GFP cells, HIV-1 wild-type (R8); read-out: Viking (10% NHS), IC50. The procedure, abridged: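 Compounds in 3-fold, 10-point series (typical 4 μM-0.2 nM) in 10% normal human serum received MT4 GFP-reporter T cells pre-infected overnight with wild-type R8 virus (MOI ~0.01). Ratio of GFP-positive cells at 72 vs 48 h defined replication; IC50 from nonlinear 4-parameter dose-response fitting.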

Converted amounts (≈) assume the structure as drawn.

For orientation: solubility means the dissolved amount per volume that the medium holds. In general, IC50 refers to the concentration that gives 50% inhibition. In the case of `C#C[C@]1(COC(=O)OCCCCCCCC)O[C@@H](n2ccc3c(N)nc(Cl)nc32)C[C@@H]1O` [Example 39, ((2R,3S,5R)-5-(4-amino-2-chloro-7H-pyrrolo[2,3-d]pyrimidin-7-yl)-2-ethynyl-3-hydroxytetrahydrofuran-2-yl)methyl octyl carbonate], the solubility at 24 h in series [1] was below 0.001 mg/mL. In addition, in series [2], the IC50 worked out at 3 nM.

For the molecule `C#C[C@]1(COC(=O)CCCCCCCCC)O[C@@H](n2ccc3c(N)nc(Cl)nc32)C[C@@H]1OC(=O)CC` [Example 47, ((2R,3S,5R)-5-(4-amino-2-chloro-7H-pyrrolo[2,3-d]pyrimidin-7-yl)-2-ethynyl-3-(propionyloxy)tetrahydrofuran-2-yl)methyl decanoate], in series [1], the solubility at 24 h was below 0.001 mg/mL. Besides, the 50% inhibitory concentration (IC50) in series [2] was found to be 34 nM.

As to `C#C[C@]1(COC(=O)CCCCCCCCC)O[C@@H](n2ccc3c(N)nc(Cl)nc32)C[C@@H]1OC(C)=O` [Example 48, ((2R,3S,5R)-3-acetoxy-5-(4-amino-2-chloro-7H-pyrrolo[2,3-d]pyrimidin-7-yl)-2-ethynyltetrahydrofuran-2-yl)methyl decanoate], in series [1], the solubility at 24 h is below 0.001 mg/mL. The IC50 in series [2] is 35 nM.

In the case of `C#C[C@]1(COC(=O)c2ccccn2)O[C@@H](n2ccc3c(N)nc(Cl)nc32)C[C@@H]1OC(=O)c1ccccn1` [Example 49, (2R,3S,5R)-5-(4-amino-2-chloro-7H-pyrrolo[2,3-d]pyrimidin-7-yl)-2-ethynyl-2-((picolinoyloxy)methyl)tetrahydrofuran-3-yl picolinate], the solubility at 24 h in series [1] came out at 0.049 mg/mL (≈ 94.4 µM). In addition, the IC50 in series [2] was 7.5 nM.

For the molecule `C#C[C@]1(COC(=O)c2ccccn2)O[C@@H](n2ccc3c(N)nc(Cl)nc32)C[C@@H]1O` [Example 50], the solubility at 24 h in series [1] was found to be 0.239 mg/mL (≈ 578 µM). Besides, the IC50 in series [2] amounted to 1.6 nM.

In the case of `C#C[C@]1(COCOC(=O)c2ccccc2)O[C@@H](n2ccc3c(N)nc(Cl)nc32)C[C@@H]1O` [Example 51], the solubility at 24 h in series [1] worked out at 0.309 mg/mL (≈ 698 µM). For the same molecule, the IC50 in series [2] is 2.2 nM.

On to `C#C[C@]1(CO)O[C@@H](n2ccc3c(N)nc(Cl)nc32)C[C@@H]1OC(=O)C(CCC)CCC` [Example 52, (2R,3S,5R)-5-(4-amino-2-chloro-7H-pyrrolo[2,3-d]pyrimidin-7-yl)-2-ethynyl-2-(hydroxymethyl)tetrahydrofuran-3-yl 2-propylpentanoate], for which, in series [1], the solubility at 24 h is 0.0024 mg/mL (≈ 5.52 µM). Further, the IC50 in series [2] is 337 nM.

Turning to `C#C[C@]1(COC(=O)OCc2oc(=O)oc2C)O[C@@H](n2ccc3c(N)nc(Cl)nc32)C[C@@H]1OC(=O)OCc1oc(=O)oc1C` [Example 53, ((2R,3S,5R)-5-(4-amino-2-chloro-7H-pyrrolo[2,3-d]pyrimidin-7-yl)-2-ethynyl-3-((((5-methyl-2-oxo-1,3-dioxol-4-yl)methoxy)carbonyl)oxy)tetrahydrofuran-2-yl)methyl ((5-methyl-2-oxo-1,3-dioxol-4-yl)methyl) carbonate], the solubility at 24 h in series [1] was below 0.001 mg/mL. In series [2], the IC50 was found to be 1.7 nM.

For the molecule `C#C[C@]1(COCOC(=O)C(C)C)O[C@@H](n2ccc3c(N)nc(Cl)nc32)C[C@@H]1O` [Example 54, (((2R,3S,5R)-5-(4-amino-2-chloro-7H-pyrrolo[2,3-d]pyrimidin-7-yl)-2-ethynyl-3-hydroxytetrahydrofuran-2-yl)methoxy)methyl isobutyrate], in series [1], the solubility at 24 h was determined as 0.247 mg/mL (≈ 604 µM). The 50% inhibitory concentration (IC50) in series [2] is 1.5 nM.

For the molecule `C#C[C@]1(CO)O[C@@H](n2ccc3c(N)nc(Cl)nc32)C[C@@H]1OC(=O)CCCCCCCC` [Example 55, (2R,3S,5R)-5-(4-amino-2-chloro-7H-pyrrolo[2,3-d]pyrimidin-7-yl)-2-ethynyl-2-(hydroxymethyl)tetrahydrofuran-3-yl nonanoate], in series [1], the solubility at 24 h is below 0.001 mg/mL. In addition, the IC50 in series [2] came to 2.2 nM.
